Test results as given in ChEMBL document CHEMBL5724914, “Linking interpersonal differences in gut microbiota composition and drug biotransformation activity” (2024).

How the values were obtained:
[1] = (§1) The drug is tested on Z-028 corresponding to mouse gut metagenome with ENA study accession number: PRJEB37062 and ENA sample accession number: ERS12561827 for biotransformation under anaerobic condition. The drug concentrations were measured over 9 timepoints collected between 0 and 24 hours of incubation by liquid-chromatography-coupled mass spectrometry (LC–MS); details: 2 µM
[2] = as §1, with “Z-023” for “Z-028”, “to” for “to mouse gut”, “ERS12561822” for “ERS12561827”; details: 2 µM
[3] = as §1, with “Z-018” for “Z-028”, “pig” for “mouse”, “ERS12561817” for “ERS12561827”; details: 2 µM
[4] = as §1, with “Z-013” for “Z-028”, “rabbit” for “mouse”, “ERS12561813” for “ERS12561827”; details: 2 µM
[5] = as §1, with “Z-011” for “Z-028”, “ERS12561811” for “ERS12561827”; details: 2 µM
[6] = as §1, with “Z-010” for “Z-028”, “to” for “to mouse gut”, “ERS12561810” for “ERS12561827”; details: 2 µM
[7] = as §1, with “Z-008” for “Z-028”, “to” for “to mouse gut”, “ERS12561808” for “ERS12561827”; details: 2 µM
[8] = as §1, with “Z-006” for “Z-028”, “ERS12561806” for “ERS12561827”; details: 2 µM
[9] = as §1, with “Z-001” for “Z-028”, “ERS12561801” for “ERS12561827”; details: 2 µM
[10] = as §1, with “WLS-350” for “Z-028”, “human” for “mouse”, “ERS12561789” for “ERS12561827”; details: 2 µM
[11] = as §1, with “WLS-240” for “Z-028”, “human” for “mouse”, “ERS12561773” for “ERS12561827”; details: 2 µM
[12] = as §1, with “WLS-077” for “Z-028”, “human” for “mouse”, “ERS12561750” for “ERS12561827”; details: 2 µM
[13] = as §1, with “WLS-039” for “Z-028”, “human” for “mouse”, “ERS12561746” for “ERS12561827”; details: 2 µM
[14] = human gut metagenome, 24 h, 2 µM
[15] = human gut metagenome, 24 h, 2 µM; remark: listed apart in the source
[16] = human gut metagenome, 24 h, 2 µM; remark: listed apart in the source
[17] = human gut metagenome, 24 h, 2 µM; remark: listed apart in the source
[18] = human gut metagenome, 24 h, 2 µM; remark: listed apart in the source
[19] = human gut metagenome, 24 h, 2 µM; remark: listed apart in the source
[20] = human gut metagenome, 24 h, 2 µM; remark: listed apart in the source
Further: call rule not given here.

| SMILES | Bacterial Biotransformation [1] | Bacterial Biotransformation [2] | Bacterial Biotransformation [3] | Bacterial Biotransformation [4] | Bacterial Biotransformation [5] | Bacterial Biotransformation [6] | Bacterial Biotransformation [7] | Bacterial Biotransformation [8] | Bacterial Biotransformation [9] | Bacterial Biotransformation [10] | Bacterial Biotransformation [11] | Bacterial Biotransformation [12] | Bacterial Biotransformation [13] | Bacterial Biotransformation [14] | Bacterial Biotransformation [15] | Bacterial Biotransformation [16] | Bacterial Biotransformation [17] | Bacterial Biotransformation [18] | Bacterial Biotransformation [19] | Bacterial Biotransformation [20] |
| --- | --- | --- | --- | --- | --- | --- | --- | --- | --- | --- | --- | --- | --- | --- | --- | --- | --- | --- | --- | --- |
| CC(=O)O[C@H]1C(=O)[C@@]2(C)[C@H]([C@H](OC(=O)c3ccccc3)[C@]3(O)C[C@H](OC(=O)[C@H](O)[C@@H](NC(=O)c4ccccc4)c4ccccc4)C(C)=C1C3(C)C)[C@]1(OC(C)=O)CO[C@@H]1C[C@@H]2O [PACLITAXEL] | Compound metabolized | Compound metabolized | Compound metabolized | Compound metabolized | Compound metabolized | Compound metabolized | Compound NOT metabolized | Compound NOT metabolized | Compound NOT metabolized | Compound NOT metabolized | Compound NOT metabolized | Compound metabolized | Compound metabolized | Compound NOT metabolized | Compound NOT metabolized | Compound NOT metabolized | Compound NOT metabolized | Compound NOT metabolized | Compound NOT metabolized | Compound NOT metabolized |
| CC(=O)CCCCn1c(=O)c2c(ncn2C)n(C)c1=O [PENTOXIFYLLINE] | Compound NOT metabolized | Compound NOT metabolized | Compound NOT metabolized | Compound NOT metabolized | Compound NOT metabolized | Compound NOT metabolized | Compound NOT metabolized | Compound NOT metabolized | Compound NOT metabolized | Compound NOT metabolized | Compound metabolized | Compound NOT metabolized | Compound NOT metabolized | Compound NOT metabolized | Compound NOT metabolized | Compound NOT metabolized | Compound metabolized | Compound NOT metabolized | Compound NOT metabolized | Compound metabolized |
| CCCN1C[C@H](CSC)C[C@@H]2c3cccc4[nH]cc(c34)C[C@H]21.CS(=O)(=O)O [PERGOLIDE MESYLATE] | Compound NOT metabolized | Compound NOT metabolized | Compound NOT metabolized | Compound NOT metabolized | Compound NOT metabolized | Compound NOT metabolized | Compound NOT metabolized | Compound NOT metabolized | Compound NOT metabolized | Compound NOT metabolized | Compound NOT metabolized | Compound NOT metabolized | Compound NOT metabolized | Compound NOT metabolized | Compound NOT metabolized | Compound NOT metabolized | Compound NOT metabolized | Compound NOT metabolized | Compound NOT metabolized | Compound NOT metabolized |
